In the NIST ThermoML archive (doi:10.1016/j.jct.2017.06.002):

Experiment: xn = mol fraction of the nth substance listed
Details: 100 kPa, Liquid; for viscosity: Concentric cylinders viscometry; for mass density: Vibrating tube method

COCOCOCOC [2,4,6,8-tetraoxanonane] + COCOCOC
Details | mass density [kg/m3] | viscosity [mPa·s]
288.15 K, x2 = 0 | 1037.5 | 1.259
288.15 K, x2 = 0.06 | 1034.7 | 1.278
288.15 K, x2 = 0.12 | 1031.3 | 1.281
288.15 K, x2 = 0.18 | 1029.5 | 1.273
288.15 K, x2 = 0.24 | 1027.1 | 1.261
288.15 K, x2 = 0.35 | 1024.2 | 1.228
288.15 K, x2 = 0.45 | 1021.1 | 1.185
288.15 K, x2 = 0.55 | 1018.1 | 1.142
288.15 K, x2 = 0.65 | 1014.3 | 1.096
288.15 K, x2 = 0.74 | 1010.1 | 1.051
288.15 K, x2 = 0.83 | 1006.2 | 1.001
288.15 K, x2 = 0.92 | 1002.3 | 0.9612
293.15 K, x2 = 0 | 1030.2 | 1.166
293.15 K, x2 = 0.06 | 1028.4 | 1.174
293.15 K, x2 = 0.12 | 1025.9 | 1.177
293.15 K, x2 = 0.18 | 1024.5 | 1.17
293.15 K, x2 = 0.24 | 1022.7 | 1.159
293.15 K, x2 = 0.35 | 1019.5 | 1.128
293.15 K, x2 = 0.45 | 1016.1 | 1.093
293.15 K, x2 = 0.55 | 1012.8 | 1.058
293.15 K, x2 = 0.65 | 1009.1 | 1.021
293.15 K, x2 = 0.74 | 1005.3 | 0.9894
293.15 K, x2 = 0.83 | 1001.7 | 0.9628
293.15 K, x2 = 0.92 | 998.2 | 0.9384
298.15 K, x2 = 0 | 1023.4 | 1.084
298.15 K, x2 = 0.06 | 1022.3 | 1.093
298.15 K, x2 = 0.12 | 1021.2 | 1.098
298.15 K, x2 = 0.18 | 1019.5 | 1.093
298.15 K, x2 = 0.24 | 1018.1 | 1.084
298.15 K, x2 = 0.35 | 1014.5 | 1.059
298.15 K, x2 = 0.45 | 1011.2 | 1.032
298.15 K, x2 = 0.55 | 1007.8 | 1.002
298.15 K, x2 = 0.65 | 1004.1 | 0.9754
298.15 K, x2 = 0.74 | 1000.5 | 0.9543
298.15 K, x2 = 0.83 | 996.4 | 0.9353
298.15 K, x2 = 0.92 | 993 | 0.9189
303.15 K, x2 = 0 | 1016.6 | 1.028
303.15 K, x2 = 0.06 | 1016.4 | 1.038
303.15 K, x2 = 0.12 | 1015.9 | 1.042
303.15 K, x2 = 0.18 | 1014.5 | 1.037
303.15 K, x2 = 0.24 | 1013.1 | 1.031
303.15 K, x2 = 0.35 | 1009.9 | 1.01
303.15 K, x2 = 0.45 | 1006.5 | 0.9913
303.15 K, x2 = 0.55 | 1003.2 | 0.9667
303.15 K, x2 = 0.65 | 999.3 | 0.9452
303.15 K, x2 = 0.74 | 995.5 | 0.9283
303.15 K, x2 = 0.83 | 991.3 | 0.9135
303.15 K, x2 = 0.92 | 987.6 | 0.9007
308.15 K, x2 = 0 | 1011 | 0.9921
308.15 K, x2 = 0.06 | 1011.01 | 0.9966
308.15 K, x2 = 0.12 | 1010.7 | 0.9977
308.15 K, x2 = 0.18 | 1010.32 | 0.9959
308.15 K, x2 = 0.24 | 1008.6 | 0.9894
308.15 K, x2 = 0.35 | 1005.6 | 0.9741
308.15 K, x2 = 0.45 | 1002.1 | 0.9577
308.15 K, x2 = 0.55 | 998.9 | 0.938
308.15 K, x2 = 0.65 | 995 | 0.9204
308.15 K, x2 = 0.74 | 990.8 | 0.9067
308.15 K, x2 = 0.83 | 986.8 | 0.8938
308.15 K, x2 = 0.92 | 982.8 | 0.8828
313.15 K, x2 = 0 | 1005 | 0.9521
313.15 K, x2 = 0.06 | 1006.5 | 0.9668
313.15 K, x2 = 0.12 | 1007 | 0.9724
313.15 K, x2 = 0.18 | 1006.3 | 0.9671
313.15 K, x2 = 0.24 | 1005.5 | 0.9597
313.15 K, x2 = 0.35 | 1002.4 | 0.9453
313.15 K, x2 = 0.45 | 998.3 | 0.9308
313.15 K, x2 = 0.55 | 994.9 | 0.916
313.15 K, x2 = 0.65 | 990.8 | 0.9008
313.15 K, x2 = 0.74 | 987 | 0.8876
313.15 K, x2 = 0.83 | 983 | 0.8758
313.15 K, x2 = 0.92 | 979 | 0.8652
